Test [1] concerns histamine stimulated parietal cell. As to the kind of experiment: Isolated parietal cell assay, inhibition of 14C-aminopyrine accumulation, histamine stimulated. The test is classed as cell-based, rabbit. To be noted: Oryctolagus cuniculus, 20 min, Example 48, 37° C., read-out: IC50 vhist (inhibition of 14C-AP accumulation in histamine stimulated parietal cell). As for the experimental part:
(§1) Isolated Parietal Cell Assay
(§2) The isolated parietal cell assay was conducted using the procedures of Batzri, S. et al., Biochemica et Biophysica Acta 508, 328 (1978) and Soll, A. H. Am. J. Physiol. 238, G366 (1980). Basically, parietal cells were isolated from the fundic mucosa of rabbit stomachs by a four-stage collagenase digestion process. The supernatant fractions from the last two stages of this process contain the individual parietal cells. This cell suspension was centrifuged and reconstituted in a modified Hank's buffer to contain 1-2×10^6 cells/ml. […] This accumulation was stimulated by histamine and was blocked by H2 antagonists. The cells were incubated with 0.4-0.5×10^6 cpm ^14 C-AP, with various concentrations of histamine as a stimulant, 1×10^-5 M isobutylmethylxanthine, and the test compound added in a 20 μl volume of buffer or DMSO. The flasks were incubated in a shaking water bath at 37° C. for 20 minutes. Two aliquots were then taken from each flask and cell pellets were collected by centrifugation. The pellets were solubilized with Protosol (New England Nuclear) and radioactivity determined by liquid scintillation spectrometry. Data is presented as the IC50 vhist, the concentration of compound required to inhibit ^14 C-AP accumulation in the histamine stimulated parietal cell by 50%. When dibutyryl cAMP was used to stimulate the cells instead of histamine, a similar inhibition of ^14 C-AP accumulation was measured and the data are presented as the IC50 vcAMP, the concentration required to inhibit ^14 C-AP accumulation in the cAMP stimulated parietal cells by 50%.

Test [2] deals with cAMP stimulated parietal cells. As to the kind of experiment: Isolated parietal cell assay, inhibition of 14C-aminopyrine accumulation, dibutyryl cAMP stimulated. The test is classed as cell-based, rabbit. Particulars: Oryctolagus cuniculus, 20 min, Example 48, 37° C., read-out: IC50 vcAMP (inhibition of 14C-AP accumulation in cAMP stimulated parietal cells). As for the experimental part: as §1, §2

Test [3] has as its target T1, parietal cell H^+ K^+ ATPase (Oryctolagus cuniculus, UniProt P27112).
T1 construct: determined in fundic mucosa from New Zealand white rabbits which were homogenized; from tissue; host or cells: fundic mucosa of New Zealand white rabbits, homogenized; membrane protein
Kind of test: Inhibition of parietal cell H+ K+ ATPase. Type of test: biochemical, New Zealand white rabbits. Particulars: Example 49; for IC50: given as "50% @ x μM", read-out: % Inhibition at Concentration (H+ K+ ATPase): concentration given for 50% inhibition; for inhibition at 100 µM: @ 10^-4 M, read-out: % Inhibition at Concentration (H+ K+ ATPase). As for the experimental part:
Inhibition of Parietal Cell H^+ K^+ ATPase
The activity was measured in a 1 ml incubation volume containing 50 mM Tris pH 7.4, 2 mM MgCl2, 2 mM Na2 ATP, with or without 20 mM KCl and vehicle control (dimethylsulfoxide) or test compound added in a 0.02 ml volume. Typically, 20-50 μg membrane protein was added and the tubes were preincubated with test compound for 10 minutes at 37° C. Substrate, Na2 ATP, was then added and the tubes were incubated for another 15 minutes at 37° C. The reaction was stopped by the addition of 1 ml 14% trichloroacetic acid and the samples were centrifuged at 2,000 xg for 10 minutes. The amount of inorganic phosphate present in an aliquot of supernatant was determined. H^+ K^+ ATPase activity was determined after correcting for the basal (Mg^++ only) enzyme activity present in the membrane preparation.

The subject of another test is acid output. Kind of test: Gastric secretion, acid output in pylorus ligated rats. The test is classed as in vivo, male Charles River Sprague Dawley derived rats. To be noted: Example 50, i.d. or s.c., four hours after pylorus ligation, compared to control; for % Acid Secreted at mpK: @ 10 mpK; for response vs control in vivo at 20 mg/kg / response vs control in vivo at 40 mg/kg: Rattus norvegicus, 4 h, read-out: % Acid Secreted at mpK; for response vs control in vivo at 20 mg/kg: @ 20 mpK; for response vs control in vivo at 40 mg/kg: @ 40 mpK. As for the experimental part: The inhibitory activity of the compounds on acid output was tested using pylorus ligation in a modification of the procedure of Shay, H. et al., Gastroenterology 26, 906 (1954). Basically, male Charles River Sprague Dawley derived rats weighing 150-300 grams were deprived of food but not water for 18-24 hours prior to use. Water was withheld during the experiment, however. The rats were weighed, anesthetized with ether and the pylorus ligated according to the method of Shay et al., supra. Treatment or vehicle control was then administered intraduodenally (i.d.) or subcutaneously (s.c.). Rats were housed two/cage and sacrificed with CO2 four hours after ligation. The stomachs were removed, rinsed, and contents emptied into a graduated centrifuge tube. The tubes were centrifuged, the volume of gastric juice recorded, and any samples obviously contaminated by feces, food or blood were eliminated. A 1 ml aliquot of gastric juice was titrated with 0.1N NaOH to a pH of 7.0-7.4. The volume of gastric juice secreted, the acid concentration, and the product of the volume times the concentration, i.e., the total amount of acid secreted, were measured.

Structures are written as SMILES.

T1 sequence (P27112 2-1035 limits assumed): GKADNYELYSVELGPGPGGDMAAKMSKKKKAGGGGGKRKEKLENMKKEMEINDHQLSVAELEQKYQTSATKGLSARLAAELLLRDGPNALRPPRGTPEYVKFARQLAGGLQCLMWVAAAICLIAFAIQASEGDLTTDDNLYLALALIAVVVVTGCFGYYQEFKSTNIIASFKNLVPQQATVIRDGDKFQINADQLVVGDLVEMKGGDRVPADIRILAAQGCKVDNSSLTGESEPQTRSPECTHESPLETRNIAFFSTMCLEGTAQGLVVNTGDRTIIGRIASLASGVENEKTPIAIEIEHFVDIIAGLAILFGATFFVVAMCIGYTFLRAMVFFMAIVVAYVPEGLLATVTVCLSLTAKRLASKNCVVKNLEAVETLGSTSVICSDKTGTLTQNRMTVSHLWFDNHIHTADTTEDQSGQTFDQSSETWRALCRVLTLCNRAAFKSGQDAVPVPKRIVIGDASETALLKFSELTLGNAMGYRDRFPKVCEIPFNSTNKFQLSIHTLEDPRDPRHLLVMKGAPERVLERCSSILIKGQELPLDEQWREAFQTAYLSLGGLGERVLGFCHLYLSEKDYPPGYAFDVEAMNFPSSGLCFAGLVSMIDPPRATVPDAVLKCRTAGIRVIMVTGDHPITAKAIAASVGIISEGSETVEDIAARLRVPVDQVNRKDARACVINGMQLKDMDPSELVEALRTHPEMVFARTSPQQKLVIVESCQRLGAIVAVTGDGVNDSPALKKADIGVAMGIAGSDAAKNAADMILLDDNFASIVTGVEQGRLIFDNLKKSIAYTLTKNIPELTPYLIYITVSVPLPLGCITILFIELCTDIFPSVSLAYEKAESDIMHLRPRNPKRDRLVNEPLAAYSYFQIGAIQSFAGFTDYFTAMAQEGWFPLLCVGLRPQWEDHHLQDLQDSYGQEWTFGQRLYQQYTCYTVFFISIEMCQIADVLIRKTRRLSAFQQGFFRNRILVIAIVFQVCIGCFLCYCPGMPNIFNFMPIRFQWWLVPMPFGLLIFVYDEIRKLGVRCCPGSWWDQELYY
T1 sequence (P18597 whole entry partner): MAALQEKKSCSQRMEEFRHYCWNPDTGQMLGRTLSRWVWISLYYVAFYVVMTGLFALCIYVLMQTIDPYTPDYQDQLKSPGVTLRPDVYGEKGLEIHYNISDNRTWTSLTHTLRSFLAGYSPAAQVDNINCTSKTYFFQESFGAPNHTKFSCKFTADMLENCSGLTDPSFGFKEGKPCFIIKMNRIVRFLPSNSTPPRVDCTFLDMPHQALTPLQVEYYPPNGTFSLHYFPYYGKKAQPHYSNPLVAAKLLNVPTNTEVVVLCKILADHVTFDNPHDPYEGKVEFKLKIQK

With `CCCCN(CCCC)CCCCOc1ccc(/C=C/c2nc3ccccc3o2)cc1` [Example 18], the figures for the IC50 in test [1], in test [2] and in test [3] were 180 nM, below 10000 nM and 20 µM, respectively. In the test with acid output, the “% Acid Secreted at mpK” value came to 14%.

Consider `C(=C\c1nc2ccccc2o1)/c1ccc(OCCCCN2CCCCC2)cc1` [Example 19], for which the IC50 was found to be 170 nM in test [1], 330 nM in test [2] and 40 µM in test [3]. Moreover, the response vs control in vivo at 20 mg/kg with acid output is 42%.

For the compound `CCCN(CCC)CCCCOc1ccc(/C=C/c2nc3ccccc3o2)cc1` [Example 20], the IC50 in test [1] stood at 390 nM; in test [2], 110 nM; in test [3], 21 µM. In addition, the “% Acid Secreted at mpK” value in the test on acid output came out at 59%. Also, the response vs control in vivo at 20 mg/kg with acid output is 90%.

For the compound `C(=C\c1nc2ccccc2o1)/c1ccc(OCCCCn2ccnc2)cc1` [Example 21], the IC50 in test [1] is 270 nM; in test [2] it was 330 nM; in test [3], 30 µM. The response vs control in vivo at 20 mg/kg with acid output amounted to 14%.

As for `CCN(CC)CCCCOc1ccc(/C=C/c2nc3ccccc3o2)cc1` [Example 22], the values for the IC50 in test [1], in test [2] and in test [3] were 80 nM, 120 nM and 74 µM, respectively. Moreover, the response vs control in vivo at 20 mg/kg in the test with acid output was found to be 31%.

For the compound `C(=C\c1nc2ccccc2o1)/c1ccc(OCCCCN2CCCC2)cc1` [Example 23, (E)-2-[2-(4-Pyrrolinobutoxyphenyl)ethenyl]benzoxazole], the values for the IC50 in test [1], in test [2] and in test [3] were 170 nM, 240 nM and 84 µM, respectively. The response vs control in vivo at 40 mg/kg in the test with acid output is 24%.

With `C(=C\c1nc2ccccc2o1)/c1ccc(OCCCCCn2ccnc2)cc1` [Example 24], the IC50 in test [1] was determined as 280 nM; in test [2], 230 nM; in test [3] it was 13 µM. Further, the response vs control in vivo at 20 mg/kg with acid output came to 45%.

`CCCCN(CCCC)CCCOc1cccc(/C=C/c2nc3ccccc3s2)c1` [Example 25]: the results for the IC50 in test [1] and in test [2] were 200 nM and 330 nM, respectively. Besides, the inhibition at 100 µM in test [3] stood at 61%. In addition, the response vs control in vivo at 20 mg/kg with acid output amounted to 40%.

With `CCCN(CCC)CCCCOc1cccc(/C=C/c2nc3ccccc3s2)c1` [Example 26, (E)-2-[2-(3-Dipropylaminobutoxyphenyl)ethenyl]benzothiazole], the IC50 came out at 90 nM in test [1], 180 nM in test [2] and 19 µM in test [3]. Further, in the test with acid output, the response vs control in vivo at 20 mg/kg was 42%. In addition, in the test on acid output, the response vs control in vivo at 40 mg/kg turned out to be 80%.

For the compound `C(=C\c1nc2ccccc2s1)/c1cccc(OCCCCn2ccnc2)c1` [Example 27], the IC50 came to 110 nM in test [1], 210 nM in test [2] and 4.7 µM in test [3]. Besides, the response vs control in vivo at 20 mg/kg in the test on acid output is 42%. For the same compound, the response vs control in vivo at 40 mg/kg with acid output was 83%.

In the case of `CCCCN(CCCC)CCCOc1ccc(/C=C/c2nc3ccccc3s2)cc1` [Example 28, (E)-2-[2-(4-Dibutylaminopropoxyphenyl)ethenyl]benzothiazole], the IC50 in test [1] amounted to 21000 nM. Moreover, the IC50 in test [2] is 450 nM. For the same compound, the inhibition at 100 µM in test [3] worked out at 46%. Further, in the test with acid output, the “% Acid Secreted at mpK” value stood at 25% and the response vs control in vivo at 20 mg/kg stood at 49%.

Regarding `COc1ccccc1N1CCN(CCCOc2ccc(/C=C/c3nc4ccccc4s3)cc2)CC1` [Example 31], the IC50 came to 1700 nM in test [1] and 3400 nM in test [2]. In addition, the inhibition at 100 µM in test [3] is 33%. The response vs control in vivo at 20 mg/kg in the test on acid output stood at 11%.

On to `CCCCN(CCCC)CCCOc1ccc(/C=C/c2nc3cc(C)ccc3s2)cc1` [Example 34, (E)-2-[2-(4-Dibutylaminopropoxyphenyl)ethenyl]-5-methylbenzothiazole], for which the IC50 in test [1] came to 290 nM; in test [2], 530 nM. Further, the inhibition at 100 µM in test [3] amounted to 52%. Moreover, in the test on acid output, the response vs control in vivo at 20 mg/kg amounted to 14%.

For `CCCCN(CCCC)CCCOc1ccc(/C=C/c2nc3ccc(OC)cc3s2)cc1` [Example 35, (E)-2-[2-(4-Dibutylaminopropoxyphenyl)ethenyl]-6-methoxybenzothiazole], the IC50 in test [1] was 260 nM; in test [2], 460 nM; in test [3], 60 µM. The response vs control in vivo at 20 mg/kg in the test with acid output was 31%.

For the compound `CCCCN(CCCC)CCCOc1ccc(/C=C/c2nc3cc(Cl)ccc3s2)cc1` [Example 36, (E)-2-[2-(4-Dibutylaminopropoxyphenyl)ethenyl]-5-chlorobenzothiazole], the results for the IC50 in test [1] and in test [2] were 400 nM and 500 nM, respectively. Moreover, the inhibition at 100 µM in test [3] amounted to 52%. In the test with acid output, the response vs control in vivo at 40 mg/kg amounted to 26%.

Turning to `CCCCN(CCCC)CCOc1ccc(/C=C/c2nc3ccccc3s2)cc1` [Example 37, (E)-2-[2-(4-Dibutylaminoethoxyphenyl)ethenyl]benzothiazole], the IC50 amounted to 430 nM in test [1] and 600 nM in test [2]. In test [3], the inhibition at 100 µM came out at 43%. Moreover, in the test with acid output, the response vs control in vivo at 20 mg/kg came out at 14%.

In the case of `CCCN(CCC)CCCCOc1ccc(/C=C/c2nc3ccccc3s2)cc1` [Example 38], the IC50 turned out to be 30 nM in test [1], 120 nM in test [2] and 21 µM in test [3]. Besides, in the test on acid output, the response vs control in vivo at 40 mg/kg came out at 93%.

Regarding `C(=C\c1nc2ccccc2s1)/c1ccc(OCCn2ccnc2)cc1` [Example 39], the IC50 in test [1] turned out to be 390 nM; in test [2], 460 nM. In test [3], the inhibition at 100 µM turned out to be 19%. In addition, in the test on acid output, the response vs control in vivo at 40 mg/kg was determined as 32%.

Turning to `CCN(CC)CCCCOc1ccc(/C=C/c2nc3ccccc3s2)cc1` [Example 41], the results for the IC50 in test [1], in test [2] and in test [3] were 180 nM, 350 nM and 44 µM, respectively. For the same compound, the response vs control in vivo at 20 mg/kg in the test with acid output was 52%.

For the compound `C(=C\c1nc2ccccc2s1)/c1ccc(OCCCCN2CCCC2)cc1` [Example 42, (E)-2-[2-(4-Pyrrolidinobutoxyphenyl)ethenyl]benzothiazole], the IC50 in test [1] is 160 nM; in test [2] it was 260 nM; in test [3], 17 µM. Also, the response vs control in vivo at 40 mg/kg with acid output stood at 20%.

As to `CCCN(CCC)CCCOc1ccc(-c2nc3ccccc3s2)cc1` [Example 44, 2-(4-Dipropylaminopropoxyphenyl)benzothiazole], the results for the IC50 in test [1] and in test [2] were 210 nM and 140 nM, respectively. Moreover, in test [3], the inhibition at 100 µM amounted to 67%. Besides, the response vs control in vivo at 20 mg/kg with acid output is 42%.

For the compound `CCCN(CCC)CCCCOc1ccc(/C=C/c2nc3ccccc3o2)cc1Cl` [Example 45, (E)-2-[2-(3-Chloro-4-dipropylaminobutoxyphenyl]ethenyl]benzoxazole], the IC50 came to 800 nM in test [1], 740 nM in test [2] and 17.5 µM in test [3]. Also, in the test with acid output, the response vs control in vivo at 20 mg/kg is 42%.

The values are drawn from patent US4861897A, “2-Aryloxyalkylaminobenzoxazoles and 2-aryloxyalkylaminobenzothiazoles” (Ortho Pharmaceutical Corporation, priority 1987, dated 1989).
